Here are results for 16 compounds from patent US4201783A, “Antidepressant substituted hexahydro benzopyrano [3,2-c] pyridines” (Lipha Lyonnaise Industrielle Pharmaceutique, priority 1977, dated 1980).

One series relates to Swiss mice. The settings on record: oral.
Another series relates to ptosis with reserpine. The experiment in a line: inhibition of reserpine ptosis in Swiss mice (B. Rubin et al.). The settings on record: simultaneously with reserpine 5 mg/kg intraperitoneally, ptosis measured at 1, 1.5 and 2 hours; for ED50 (dose inhibiting reserpine ptosis by an average of 50%): oral; for ED50: Mus musculus, po, read-out: ED50 (dose inhibiting reserpine ptosis by an average of 50%). The format is in vivo. On the procedure:
This mood-altering activity can be determined by standard, routine tests well known specialists. […] In Swiss mice, a compound was administered orally simultaneously with reserpine given interperitoneally at a dose of 5 mg/kg. Ptosis measured according to B. Rubin et al. (J. Pharmacol. Exp. […] (3-dimethylamino propylidene-5-dibenzo [a,d] 1,4-cycloheptadiene hydrochloride).

Series [1] can be described thus: clinical test of the medication containing the active compound of Example 5 A. Format: in vivo, human. The source says:
The following are observations recorded during a clinical test of the medication containing the active compound of Example 5 A.

The nature of another series: in vivo. The settings on record: mouse, po.
The mark [2] stands for this setting: Case No. 1, 5 mg daily for 30 days.
Setting [3] is: Case No. 2, 20 mg daily for 30 days.
The mark [4] stands for this setting: Case No. 3, 10 mg daily for 20 days.
Where [5] appears, read: Case No. 4, 25 mg daily for 45 days.
Setting [6] is: Case No. 5, 5 mg daily for 30 days.
[7] abbreviates: Case No. 6, 25 mg daily for 30 days.
Setting [8] is: LD50, administered orally, Swiss mice.

Counter-ions that a name gives are not always drawn.

In the case of `CN1CCC23NC(=O)CC(c4ccccc4O2)C3C1` (single isomer, unassigned) [Example 1 A, 4a-amino-2-methyl-1,2,3,4,4a,10a-hexahydro [10 H] benzopyrano-[3,2-c]pyrid-10-yl acetic acid lactam], the “LD50, administered orally” value in the series with Swiss mice is reported as 2,700 mg/kg. Moreover, in the series with ptosis with reserpine, the “ED50 (dose inhibiting reserpine ptosis by an average of 50%)” value stood at 6 mg/kg.

Regarding `CN1CCC23NC(=O)CC(c4ccccc4O2)C3C1` (single isomer, unassigned) [Example 1 B, 4a-amino-2-methyl-1,2,3,4,4a,10a-hexahydro [10 H] benzopyrano-[3,2-c]pyrid-10-yl acetic acid lactam], the “LD50, administered orally” value with Swiss mice is 600 mg/kg. For the same compound, the “ED50 (dose inhibiting reserpine ptosis by an average of 50%)” value with ptosis with reserpine was 24 mg/kg.

Turning to `CN1CCC23NC(=O)CC(c4cc(Cl)ccc4O2)C3C1` (single isomer, unassigned) [Example 5 A, 4a-amino-8-chloro-2-methyl-1,2,3,4,4a,10a-hexahydro[10 H]benzopyrano[3,2c]pyrid-10-ylacetic acid lactam], the Activity entry was “Weight gain. Improvement of mood and sociability” in series [1] (Case No. 1, pre-senile depression, 5 mg daily for 30 days, with NOZINAN-SUREPTIL); “Weight gain. Improvement of mood and sleep. Reduced anxiety. Relief of hypochondriac complaints” in series [1] (Case No. 2, post-neuroleptic depression with schizophrenia, 20 mg daily for 30 days, with NOZINAN-ARTANE-GARDENAL); “The patient was less preoccupied with their body. Decrease of compulsive washing. Improvement of social behavior” in series [1] (Case No. 3, serious hypochondriac depressive syndrome, 10 mg daily for 20 days, with MEPRONIZINE); “Improvement of mood. Less pessimistic attitude. Less frequent crying. Less pronounced feeling of guilt” in series [1] (Case No. 4, melancholic depressive relapse, 25 mg daily for 45 days, with NOZINAN 25 mg); “Improvement of mood. Less frequent crying. Improved appetite” in series [1] (Case No. 5, depressive syndrome in an alcoholic of the melancholic type, 5 mg daily for 30 days, with vitamins, NOZINAN (50 mg), ARTANE 5); “Decrease of hypochondriac complaints. Patient less irritable and apprehensive” in series [1] (Case No. 6, hypochondriac delirium with anxiety, 25 mg daily for 30 days, with ARTANE 10 mg […]). Moreover, the “Tolerance, biological” value in series [1] (setting [2]), in series [1] (setting [3]), in series [1] (setting [4]), in series [1] (setting [5]), in series [1] (setting [6]) and in series [1] (setting [7]) was “N.A.D” throughout. Further, the “Tolerance, clinical” value in series [1] (setting [2]) is “N.A.D”; in series [1] (setting [3]) it was “N.A.D”; in series [1] (setting [4]), “N.A.D”; in series [1] (setting [5]), “N.A.D”; in series [1] (setting [6]) it was “slight dizziness and nausea”; in series [1] (setting [7]), “slight vertigo”. The “ED50 (dose inhibiting reserpine ptosis by an average of 50%)” value in the series on ptosis with reserpine is 0.04 mg/kg.

On to `CN1CCC23NC(=O)CC(c4cc(Cl)ccc4O2)C3C1` (single isomer, unassigned) [Example 5 B, 4a-amino-8-chloro-2-methyl-1,2,3,4,4a,10a-hexahydro[10 H]benzopyrano[3,2c]pyrid-10-ylacetic acid lactam], for which the “ED50 (dose inhibiting reserpine ptosis by an average of 50%)” value with ptosis with reserpine was found to be 11 mg/kg.

Take `COc1ccc2c(c1)C1CC(=O)NC3(CCN(C)CC13)O2` (single isomer, unassigned) [Example 18, 4a-amino-8-methoxy-2-methyl-1,2,3,4,4a,10a-hexahydro[10 H]benzopyrano[3,2-c]pyrid-10-ylacetic acid lactam]: the LD50 in the series “in vivo” (setting [8]) was 1200 mg/kg. Besides, the ED50 in the series on ptosis with reserpine was 0.67 mg/kg.

On to `CN(C)CCC=C1c2ccccc2CCc2ccccc21` [Amitriphthyline, 3-dimethylamino propylidene-5-dibenzo [a,d] 1,4-cycloheptadiene hydrochloride, reference compound], for which, in the series “in vivo”, the LD50 was 150 mg/kg. Further, the ED50 with ptosis with reserpine was determined as 10 mg/kg.

As for `CN1CCC23NC(=O)CC(c4cc(Br)ccc4O2)C3C1` (centres unmarked) [Example 6, 4a-amino-8-bromo-2-methyl-1,2,3,4,4a,10a-hexahydro[10 H]benzopyrano[3,2-c]pyrid-10-ylacetic acid lactam], in the series “in vivo” (setting [8]), the LD50 came out at 720 mg/kg. Besides, in the series on ptosis with reserpine, the ED50 worked out at 0.1 mg/kg.

In the series “in vivo” (setting [8]), `Cc1ccc2c(c1)C1CC(=O)NC3(CCN(C)CC13)O2` (centres unmarked) [Example 7, 4a-amino-28-dimethyl-1,2,3,4,4a,10a-hexahydro[10 H]benzopyrano[3,2-c]pyrid-10-ylacetic acid lactam] came in with an LD50 of 1200 mg/kg. The ED50 in the series with ptosis with reserpine came to 3.5 mg/kg.

On to `CN1CCC23NC(=O)CC(c4cc(F)ccc4O2)C3C1` (centres unmarked) [Example 8, 4a-amino-8-fluoro-2-methyl-1,2,3,4,4a,10a-hexahydro[10 H]benzopyrano[3,2-c]pyrid-10-ylacetic acid lactam], for which the LD50 in “in vivo” (setting [8]) stood at 1080 mg/kg. In addition, the ED50 in the series with ptosis with reserpine turned out to be 1 mg/kg.

With `CC(=O)N1CCC23NC(=O)CC(c4ccccc4O2)C3C1` (centres unmarked) [Example 9, 4a-amino-2-acetyl-1,2,3,4,4a,10a-hexahydro[10 H]benzopyrano[3,2-c]pyrid-10-ylacetic acid lactam], the LD50 in “in vivo” (setting [8]) was > 3200 mg/kg. Further, the ED50 in the series on ptosis with reserpine is 5 mg/kg.

`CN1CCC23NC(=O)CC(c4c(ccc5ccccc45)O2)C3C1` (centres unmarked) [Example 10, 7a-amino-10-methyl-7a,8,9,10,11,11a-hexahydro[12 H]benzo[f]benzopyrano[3,2-c]pyrid-12-ylacetic acid lactam] yielded a 50% lethal dose (LD50) in “in vivo” (setting [8]) of 600 mg/kg. Moreover, in the series on ptosis with reserpine, the ED50 stood at 1.8 mg/kg.

`CN1CCC23NC(=O)CC(c4cc([N+](=O)[O-])ccc4O2)C3C1` (centres unmarked) [Example 15, 4a-amino-8-nitro-2-methyl-1,2,3,4,4a,10a-hexahydro[10 H]benzopyrano[3,2-c]pyrid-10-ylacetic acid lactam] had an LD50 in the series “in vivo” (setting [8]) of 2470 mg/kg. In addition, the ED50 with ptosis with reserpine was determined as 0.6 mg/kg.

`CCOC(=O)N1CCC23NC(=O)CC(c4cc(Cl)ccc4O2)C3C1` (centres unmarked) [Example 27, 4a-amino-8-chloro-2-ethoxycarbonyl-1,2,3,4,4a,10a-hexahydro[10 H]benzopyrano[3,2-c]pyrid-10-ylacetic acid lactam]: in the series “in vivo”, the LD50 is > 1600 mg/kg. Moreover, in the series with ptosis with reserpine, the ED50 came out at 0.37 mg/kg.

In turn, `COC(=O)N1CCC23NC(=O)CC(c4cc(Cl)ccc4O2)C3C1` (centres unmarked) [Example 28, 4a-amino-8-chloro-2-methoxycarbonyl-1,2,3,4,4a,10a-hexahydro[10 H]benzopyrano[3,2-c]pyrid-10-ylacetic acid lactam] displayed an LD50 in “in vivo” of 1100 mg/kg. In the series on ptosis with reserpine, the ED50 turned out to be 0.25 mg/kg.

Compound `CN1CCC23Oc4ccc(Cl)cc4C(CC(=O)N2C)C3C1` (centres unmarked) [Example 36, 8-chloro-2-methyl-4a-methylamino-1,2,3,4,4a,10a-hexahydro[10 H]benzopyrano[3,2-c]pyrid-10-ylacetic acid lactam] yielded an LD50 in the series “in vivo” (setting [8]) of 600 mg/kg. Moreover, the ED50 with ptosis with reserpine stood at 0.7 mg/kg.

Regarding `CN(C)CCCN1c2ccccc2CCc2ccccc21` [Imipramine, N-(3-dimethylaminopropyl) iminodibenzyl hydrochloride, reference compound], the median effective dose (ED50) with ptosis with reserpine came out at 2.9 mg/kg.
